This note sets out measurements from PMC7026418, “The kinase polypharmacology landscape of clinical PARP inhibitors” (Scientific Reports, 2020).

Where two headings read alike, the source gives them in different places.

Test in all cases: biochemical
Design in all cases: DiscoveRx KINOMEscan active site-directed competition binding; percent of control kinase bound to immobilised ligand

Experiment [1] concerns the target T1, BRK (Homo sapiens, UniProt Q13882).
T1 construct: gene PTK6

Experiment [2] deals with T2, MST3 (Homo sapiens, UniProt Q9Y6E0).
T2 construct: gene STK24

The target in experiment [3] is HIPK3 (Homo sapiens, UniProt Q9H422).
The target in experiment [4] is T3, CAMK4 (Homo sapiens, UniProt Q16566).
T3 sequence (Q16566 1-473): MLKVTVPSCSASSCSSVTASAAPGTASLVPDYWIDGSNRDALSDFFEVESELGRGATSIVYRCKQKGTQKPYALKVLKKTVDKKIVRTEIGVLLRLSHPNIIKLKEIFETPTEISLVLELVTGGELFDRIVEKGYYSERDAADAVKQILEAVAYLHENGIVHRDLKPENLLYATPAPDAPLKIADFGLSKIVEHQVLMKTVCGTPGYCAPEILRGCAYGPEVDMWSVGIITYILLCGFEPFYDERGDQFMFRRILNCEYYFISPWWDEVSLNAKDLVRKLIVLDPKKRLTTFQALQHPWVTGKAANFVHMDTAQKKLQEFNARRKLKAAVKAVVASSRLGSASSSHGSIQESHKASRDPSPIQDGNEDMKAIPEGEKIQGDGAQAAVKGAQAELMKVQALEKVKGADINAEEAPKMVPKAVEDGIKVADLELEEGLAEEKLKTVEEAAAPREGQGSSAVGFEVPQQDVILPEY

In experiment [5] the target is PIK3CA(H1047Y) (Homo sapiens, UniProt P42336, H1047Y).
Experiment [6] deals with ALK(C1156Y) (Homo sapiens, UniProt Q9UM73, C1156Y).
For experiment [7], the target named is T4, AMPK-alpha2 (Homo sapiens, UniProt P54646).
T4 construct: gene PRKAA2

Experiment [8] has as its target T5, NEK1 (Homo sapiens, UniProt Q96PY6).
T5 sequence (Q96PY6 1-1258): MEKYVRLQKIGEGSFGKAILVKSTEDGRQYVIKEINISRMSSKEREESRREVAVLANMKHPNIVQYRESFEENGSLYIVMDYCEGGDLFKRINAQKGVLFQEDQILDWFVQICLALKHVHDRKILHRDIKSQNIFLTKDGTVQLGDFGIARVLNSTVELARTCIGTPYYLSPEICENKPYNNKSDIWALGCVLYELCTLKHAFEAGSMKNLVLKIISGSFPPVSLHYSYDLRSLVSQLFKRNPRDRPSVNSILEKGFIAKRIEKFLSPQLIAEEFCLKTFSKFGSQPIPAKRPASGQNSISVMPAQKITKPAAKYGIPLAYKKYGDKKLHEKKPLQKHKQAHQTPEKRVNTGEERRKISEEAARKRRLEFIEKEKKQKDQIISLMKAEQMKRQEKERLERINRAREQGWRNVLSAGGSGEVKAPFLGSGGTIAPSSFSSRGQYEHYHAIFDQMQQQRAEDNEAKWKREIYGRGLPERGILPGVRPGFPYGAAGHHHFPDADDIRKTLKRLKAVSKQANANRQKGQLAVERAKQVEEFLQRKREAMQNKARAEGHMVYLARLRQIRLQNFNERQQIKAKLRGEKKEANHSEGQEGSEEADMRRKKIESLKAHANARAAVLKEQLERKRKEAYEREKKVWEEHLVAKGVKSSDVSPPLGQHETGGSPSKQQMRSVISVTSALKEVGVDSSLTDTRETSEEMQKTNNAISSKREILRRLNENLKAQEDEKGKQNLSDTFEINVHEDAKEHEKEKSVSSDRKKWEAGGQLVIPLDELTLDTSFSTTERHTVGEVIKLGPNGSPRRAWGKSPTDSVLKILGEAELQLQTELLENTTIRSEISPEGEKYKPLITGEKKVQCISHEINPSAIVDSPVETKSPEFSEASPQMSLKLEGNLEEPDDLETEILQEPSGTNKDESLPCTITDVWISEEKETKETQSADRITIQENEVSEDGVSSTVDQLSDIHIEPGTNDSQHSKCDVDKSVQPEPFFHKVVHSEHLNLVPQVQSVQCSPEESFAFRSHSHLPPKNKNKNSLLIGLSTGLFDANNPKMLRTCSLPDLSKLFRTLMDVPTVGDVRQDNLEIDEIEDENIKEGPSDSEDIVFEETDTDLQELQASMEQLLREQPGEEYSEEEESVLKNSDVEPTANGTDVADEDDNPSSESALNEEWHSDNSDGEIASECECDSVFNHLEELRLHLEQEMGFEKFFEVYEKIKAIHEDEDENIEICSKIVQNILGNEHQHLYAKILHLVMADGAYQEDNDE

Experiment [9] deals with T6, MLK2 (Homo sapiens, UniProt Q02779).
T6 construct: gene MAP3K10

Experiment [10] addresses PDGFRB (Homo sapiens, UniProt P09619).
Experiment [11] deals with CDK2 (Homo sapiens, UniProt P24941).
[12] abbreviates: read-out: Niraparib (MK-4827) / %Ctrl @ 10000nM.
Where [13] appears, read: read-out: Talazoparib (BMN 673) / %Ctrl @ 10000nM.
The mark [14] stands for this setting: read-out: Rucaparib / %Ctrl @ 10000nM, binding competition, % of control.
Setting [15] is: read-out: Olaparib / %Ctrl @ 10000nM.

HIPK3, sequence (Q9H422 whole entry): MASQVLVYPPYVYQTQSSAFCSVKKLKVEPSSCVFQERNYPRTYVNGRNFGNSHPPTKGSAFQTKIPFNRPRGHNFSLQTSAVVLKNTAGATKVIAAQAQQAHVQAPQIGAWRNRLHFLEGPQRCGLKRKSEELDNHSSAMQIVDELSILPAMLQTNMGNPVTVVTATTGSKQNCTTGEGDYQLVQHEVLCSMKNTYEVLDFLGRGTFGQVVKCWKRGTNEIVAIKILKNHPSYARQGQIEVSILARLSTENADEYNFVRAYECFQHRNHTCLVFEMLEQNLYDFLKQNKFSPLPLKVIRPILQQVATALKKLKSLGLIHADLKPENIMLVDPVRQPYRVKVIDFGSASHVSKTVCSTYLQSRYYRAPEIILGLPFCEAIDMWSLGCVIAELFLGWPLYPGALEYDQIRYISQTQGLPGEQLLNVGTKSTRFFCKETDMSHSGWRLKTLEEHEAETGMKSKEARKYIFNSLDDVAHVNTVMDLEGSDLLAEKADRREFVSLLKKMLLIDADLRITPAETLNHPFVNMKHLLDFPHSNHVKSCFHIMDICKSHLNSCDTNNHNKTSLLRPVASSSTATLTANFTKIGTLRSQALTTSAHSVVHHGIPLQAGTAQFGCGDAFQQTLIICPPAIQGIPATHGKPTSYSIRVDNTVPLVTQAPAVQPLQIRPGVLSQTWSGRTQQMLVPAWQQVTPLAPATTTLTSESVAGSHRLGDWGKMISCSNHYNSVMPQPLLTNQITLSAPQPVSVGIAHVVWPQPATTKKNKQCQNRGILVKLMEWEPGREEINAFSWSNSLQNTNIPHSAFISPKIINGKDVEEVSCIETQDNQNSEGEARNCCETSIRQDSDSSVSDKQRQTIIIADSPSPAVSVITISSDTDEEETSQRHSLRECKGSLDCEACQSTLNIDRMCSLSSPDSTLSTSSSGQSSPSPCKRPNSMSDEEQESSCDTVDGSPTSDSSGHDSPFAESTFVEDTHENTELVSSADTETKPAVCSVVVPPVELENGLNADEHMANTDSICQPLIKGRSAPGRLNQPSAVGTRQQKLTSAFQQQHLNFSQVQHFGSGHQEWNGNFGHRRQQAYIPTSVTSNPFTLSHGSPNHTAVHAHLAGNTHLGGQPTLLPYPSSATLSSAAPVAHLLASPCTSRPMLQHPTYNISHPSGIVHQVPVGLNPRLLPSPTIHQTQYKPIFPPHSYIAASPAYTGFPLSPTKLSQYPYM
ALK(C1156Y), sequence (Q9UM73 whole entry C1156Y): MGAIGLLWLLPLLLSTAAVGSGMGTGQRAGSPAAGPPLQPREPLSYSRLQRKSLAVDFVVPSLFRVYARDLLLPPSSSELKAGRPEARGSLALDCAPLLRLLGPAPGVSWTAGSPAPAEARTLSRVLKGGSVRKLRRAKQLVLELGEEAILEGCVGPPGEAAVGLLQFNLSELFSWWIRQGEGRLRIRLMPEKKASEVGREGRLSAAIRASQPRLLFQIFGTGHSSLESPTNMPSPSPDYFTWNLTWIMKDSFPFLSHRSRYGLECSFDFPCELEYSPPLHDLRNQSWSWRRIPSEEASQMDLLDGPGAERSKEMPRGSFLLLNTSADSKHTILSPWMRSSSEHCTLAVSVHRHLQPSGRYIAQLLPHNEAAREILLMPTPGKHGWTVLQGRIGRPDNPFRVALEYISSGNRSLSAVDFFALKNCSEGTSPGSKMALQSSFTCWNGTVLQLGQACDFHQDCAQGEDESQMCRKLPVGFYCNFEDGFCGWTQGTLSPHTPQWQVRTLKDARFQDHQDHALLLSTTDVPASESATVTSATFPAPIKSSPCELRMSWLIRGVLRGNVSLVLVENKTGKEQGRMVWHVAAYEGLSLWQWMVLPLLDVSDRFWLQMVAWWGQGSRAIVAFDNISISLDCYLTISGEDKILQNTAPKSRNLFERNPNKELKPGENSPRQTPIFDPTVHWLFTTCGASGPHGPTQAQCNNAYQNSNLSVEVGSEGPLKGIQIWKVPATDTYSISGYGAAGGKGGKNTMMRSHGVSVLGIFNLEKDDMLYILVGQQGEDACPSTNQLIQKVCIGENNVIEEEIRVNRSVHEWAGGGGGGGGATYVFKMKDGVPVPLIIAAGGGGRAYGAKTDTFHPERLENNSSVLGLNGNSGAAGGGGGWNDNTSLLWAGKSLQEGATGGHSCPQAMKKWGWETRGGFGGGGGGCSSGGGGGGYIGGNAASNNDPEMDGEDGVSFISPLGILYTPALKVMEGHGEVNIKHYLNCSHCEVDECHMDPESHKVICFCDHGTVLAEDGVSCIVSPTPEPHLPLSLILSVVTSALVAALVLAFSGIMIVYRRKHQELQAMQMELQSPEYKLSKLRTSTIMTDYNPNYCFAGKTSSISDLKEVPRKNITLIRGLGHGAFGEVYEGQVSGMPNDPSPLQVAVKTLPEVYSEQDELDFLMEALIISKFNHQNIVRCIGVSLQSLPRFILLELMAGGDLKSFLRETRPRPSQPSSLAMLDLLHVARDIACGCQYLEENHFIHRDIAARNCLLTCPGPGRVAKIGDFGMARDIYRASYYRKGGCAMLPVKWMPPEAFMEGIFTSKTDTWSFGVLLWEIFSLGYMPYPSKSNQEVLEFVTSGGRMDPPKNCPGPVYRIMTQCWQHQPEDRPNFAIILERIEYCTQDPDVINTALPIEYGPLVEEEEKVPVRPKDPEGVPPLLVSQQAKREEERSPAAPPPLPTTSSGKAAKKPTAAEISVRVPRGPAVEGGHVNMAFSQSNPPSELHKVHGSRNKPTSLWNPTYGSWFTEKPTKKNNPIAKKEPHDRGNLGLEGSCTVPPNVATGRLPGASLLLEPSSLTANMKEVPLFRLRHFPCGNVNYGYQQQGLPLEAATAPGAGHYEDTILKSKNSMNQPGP
T4 sequence (P54646 whole entry): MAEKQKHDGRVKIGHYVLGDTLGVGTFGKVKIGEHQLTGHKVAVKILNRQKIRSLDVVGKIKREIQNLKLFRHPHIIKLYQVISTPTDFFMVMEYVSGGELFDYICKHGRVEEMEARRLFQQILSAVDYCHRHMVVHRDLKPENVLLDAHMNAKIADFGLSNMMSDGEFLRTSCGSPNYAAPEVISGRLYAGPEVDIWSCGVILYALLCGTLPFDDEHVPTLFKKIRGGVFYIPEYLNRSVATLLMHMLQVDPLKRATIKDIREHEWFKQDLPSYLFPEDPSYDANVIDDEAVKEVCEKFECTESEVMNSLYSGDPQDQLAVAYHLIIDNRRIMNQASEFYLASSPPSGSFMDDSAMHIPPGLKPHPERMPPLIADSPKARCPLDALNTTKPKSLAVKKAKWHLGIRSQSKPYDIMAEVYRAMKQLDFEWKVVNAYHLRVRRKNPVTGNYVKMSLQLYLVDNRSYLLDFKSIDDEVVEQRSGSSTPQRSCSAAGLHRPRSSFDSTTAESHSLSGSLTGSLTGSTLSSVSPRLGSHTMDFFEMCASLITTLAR
PIK3CA(H1047Y), sequence (P42336 whole entry H1047Y): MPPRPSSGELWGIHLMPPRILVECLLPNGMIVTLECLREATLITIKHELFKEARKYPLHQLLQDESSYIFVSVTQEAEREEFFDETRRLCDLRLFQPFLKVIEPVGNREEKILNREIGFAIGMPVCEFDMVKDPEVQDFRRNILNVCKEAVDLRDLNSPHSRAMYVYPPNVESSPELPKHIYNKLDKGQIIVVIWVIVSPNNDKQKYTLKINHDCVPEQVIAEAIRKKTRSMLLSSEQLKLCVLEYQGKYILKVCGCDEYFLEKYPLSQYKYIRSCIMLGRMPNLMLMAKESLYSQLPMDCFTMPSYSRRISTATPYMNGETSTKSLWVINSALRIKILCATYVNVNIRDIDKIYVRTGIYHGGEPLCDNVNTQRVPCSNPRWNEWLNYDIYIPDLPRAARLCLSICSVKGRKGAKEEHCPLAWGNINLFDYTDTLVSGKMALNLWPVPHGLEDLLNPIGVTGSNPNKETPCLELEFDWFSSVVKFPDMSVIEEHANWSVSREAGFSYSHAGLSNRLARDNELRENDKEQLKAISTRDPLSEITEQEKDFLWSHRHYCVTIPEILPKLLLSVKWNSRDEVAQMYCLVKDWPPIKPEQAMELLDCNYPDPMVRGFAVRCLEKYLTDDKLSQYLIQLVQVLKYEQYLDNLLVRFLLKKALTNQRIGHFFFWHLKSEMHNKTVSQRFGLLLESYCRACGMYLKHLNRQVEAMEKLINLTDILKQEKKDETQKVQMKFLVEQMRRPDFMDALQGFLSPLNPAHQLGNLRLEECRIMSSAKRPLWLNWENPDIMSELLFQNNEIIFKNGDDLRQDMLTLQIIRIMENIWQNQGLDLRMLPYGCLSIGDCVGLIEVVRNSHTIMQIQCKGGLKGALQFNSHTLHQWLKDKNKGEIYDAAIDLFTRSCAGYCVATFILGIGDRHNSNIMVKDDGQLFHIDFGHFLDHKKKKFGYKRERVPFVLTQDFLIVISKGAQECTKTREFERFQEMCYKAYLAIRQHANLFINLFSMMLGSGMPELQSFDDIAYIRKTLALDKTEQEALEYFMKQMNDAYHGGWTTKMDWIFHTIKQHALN
T2 sequence (Q9Y6E0 whole entry): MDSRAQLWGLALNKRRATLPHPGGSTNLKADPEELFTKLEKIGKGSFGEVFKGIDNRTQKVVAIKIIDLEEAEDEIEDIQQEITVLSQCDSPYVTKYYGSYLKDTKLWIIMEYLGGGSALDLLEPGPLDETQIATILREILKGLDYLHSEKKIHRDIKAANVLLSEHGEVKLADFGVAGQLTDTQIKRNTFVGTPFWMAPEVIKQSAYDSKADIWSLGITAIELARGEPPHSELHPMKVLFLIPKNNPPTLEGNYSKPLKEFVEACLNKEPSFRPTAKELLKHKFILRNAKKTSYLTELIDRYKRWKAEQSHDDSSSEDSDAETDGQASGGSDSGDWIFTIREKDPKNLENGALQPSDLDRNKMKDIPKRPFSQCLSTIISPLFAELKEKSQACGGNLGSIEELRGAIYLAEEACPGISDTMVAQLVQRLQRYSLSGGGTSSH

`NC(=O)c1cccc2cn(-c3ccc([C@@H]4CCCNC4)cc3)nc12` [Niraparib]: the percent of control binding at 10 µM came out at 91% in experiment [1] (setting [12]); 74% in [2] (setting [12]); 2.5% in experiment [3] (setting [12]); 100% in experiment [4] (setting [12]); 66% in [5] (setting [12]); 88% in experiment [6] (setting [12]). Also, the percent of control binding at 10 µM stood at 89% in experiment [7] (setting [12]); 98% in experiment [8] (setting [12]); 69% in [9] (setting [12]); 90% in experiment [10] (setting [12]); 100% in experiment [11] (setting [12]).
For `Cn1ncnc1[C@H]1c2n[nH]c(=O)c3cc(F)cc(c23)N[C@@H]1c1ccc(F)cc1` [Talazoparib], the percent of control binding at 10 µM in experiment [1] (setting [13]) was 100%; in experiment [2] (setting [13]), 99%; in [3] (setting [13]) it was 55%; in experiment [4] (setting [13]), 83%; in experiment [5] (setting [13]) it was 89%; in experiment [6] (setting [13]), 100%. For the same molecule, the percent of control binding at 10 µM is 94% in experiment [7] (setting [13]); 80% in [8] (setting [13]); 70% in [9] (setting [13]); 99% in experiment [10] (setting [13]); 96% in experiment [11] (setting [13]).
Take `CNCc1ccc(-c2[nH]c3cc(F)cc4c3c2CCNC4=O)cc1` [Rucaparib]: the percent of control binding at 10 µM is 99% in [1] (setting [14]); 89% in [2] (setting [14]); 18% in experiment [3] (setting [14]); 94% in [4] (setting [14]); 75% in [5] (setting [14]); 43% in experiment [6] (setting [14]). Moreover, the percent of control binding at 10 µM in [7] (setting [14]) was determined as 87%; in [8] (setting [14]) it was 90%; in experiment [9] (setting [14]) it was 63%; in [10] (setting [14]), 98%; in [11] (setting [14]), 98%.
As to `O=C(c1cc(Cc2n[nH]c(=O)c3ccccc23)ccc1F)N1CCN(C(=O)C2CC2)CC1` [Olaparib], the percent of control binding at 10 µM in experiment [1] (setting [15]) came to 88%; in [2] (setting [15]), 99%; in experiment [3] (setting [15]) it was 100%; in experiment [4] (setting [15]), 93%; in experiment [5] (setting [15]), 100%; in [6] (setting [15]), 88%. Moreover, the percent of control binding at 10 µM in [7] (setting [15]) worked out at 93%; in experiment [8] (setting [15]), 74%; in experiment [9] (setting [15]) it was 97%; in experiment [10] (setting [15]), 96%; in experiment [11] (setting [15]), 93%.
